{"source": "patent US7951374B2", "about": "“Methods for inhibiting STAT3 signaling in immune cells” (University of South Florida, priority 2004, dated 2011)", "key": {"Stat3": {"molecular_target": "T1, Stat3 (Mus musculus, UniProt P42227)", "T1 construct": "endogenous in cells; host or cells: mouse DC2.4 dendritic cells", "T1 sequence (P42227 whole entry)": "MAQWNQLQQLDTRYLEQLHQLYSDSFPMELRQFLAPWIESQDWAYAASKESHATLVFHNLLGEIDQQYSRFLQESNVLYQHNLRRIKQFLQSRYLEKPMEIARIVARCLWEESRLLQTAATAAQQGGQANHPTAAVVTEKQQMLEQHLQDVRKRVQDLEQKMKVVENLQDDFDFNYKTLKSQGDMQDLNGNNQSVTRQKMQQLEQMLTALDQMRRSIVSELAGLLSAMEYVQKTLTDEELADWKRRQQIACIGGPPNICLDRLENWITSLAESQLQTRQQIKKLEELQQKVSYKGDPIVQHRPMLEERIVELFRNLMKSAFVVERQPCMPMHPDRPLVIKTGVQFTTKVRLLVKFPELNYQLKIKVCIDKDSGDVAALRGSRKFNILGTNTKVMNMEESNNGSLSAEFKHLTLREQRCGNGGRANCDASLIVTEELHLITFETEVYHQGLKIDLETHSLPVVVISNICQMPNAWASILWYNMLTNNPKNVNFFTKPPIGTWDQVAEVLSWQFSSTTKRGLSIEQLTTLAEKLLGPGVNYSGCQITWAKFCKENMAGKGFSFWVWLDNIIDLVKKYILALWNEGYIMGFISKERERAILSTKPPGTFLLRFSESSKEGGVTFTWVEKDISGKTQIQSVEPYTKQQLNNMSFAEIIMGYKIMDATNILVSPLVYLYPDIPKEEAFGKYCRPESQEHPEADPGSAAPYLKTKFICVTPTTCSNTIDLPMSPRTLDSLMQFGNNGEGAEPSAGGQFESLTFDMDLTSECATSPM", "test": "EMSA of Stat DNA binding in DC2.4 dendritic cells preincubated with CPA-7 (Stat3)", "format": "cell-based", "conditions": "DC2.4 cells, 10 μm CPA-7 overnight, then 20 ng/ml IL-6 for 20 minutes, EMSA (FIG. 32)", "procedure": "Mouse DC2.4 dendritic cells were preincubated with 10 μm CPA-7 overnight and then stimulated for 20 minutes with 20 ng/ml IL-6 (activator of both Stat3 and Stat1), 500 U/ml IFN-γ (activator of […]) or 20 ng/ml GM-CSF (activator of Stat5). After cell lysis, nuclear extracts were prepared and EMSA was conducted to detect DNA binding."}, "Phospho-Stat3 (Stat3P)": {"molecular_target": "T2, Phospho-Stat3 (Stat3P) (Mus musculus, UniProt P42227)", "T2 construct": "from tissue; host or cells: tumor-infiltrating dendritic cells from MB49 tumors of mice", "T2 sequence (P42227 whole entry)": "as above", "test": "Phospho-Stat3 levels in MB49 tumor-infiltrating DCs after intravenous CPA-7, intracellular flow cytometry", "format": "in vivo", "conditions": "24 hours after intravenous injection, compared to vehicle-treated mice (FIG. 33)", "procedure": "(§1) Isolation of tumor-infiltrating immune cell subsets and intracellular staining of signaling molecules. Freshly excised tumor tissues were gently minced into small pieces and incubated in 400 U/ml of collagenase D (Roche) solution for 30 minutes at 37° C. Cell suspensions were filtered through a mesh filter for isolation of various immune cell subsets using specific antibodies in combination with EASYSEP magnetic nanoparticles (StemCell Technologies, Canada). Isolated tumor-infiltrating cells were fixed in paraformaldehyde and permeated in methanol before intracellular staining with antibodies to phosphotyrosine-Stat3 and Stat1 (BD Biosciences) or with Foxp3-specific antibody (eBiosciences). Fluorescence data was collected on FACSCalibur (Beckton Dickinson) and analyzed using FlowJo software (Tree Star).\n(§2) To further characterize activation of CPA-7 treated immune cells, Phospho-Stat3 (Stat3P) levels in tumor-infiltrating DCs were assessed 24 hours after intravenous injection with vehicle or CPA-7 and compared to splenic CD11c^+ cells from tumor-free Stat3^+/+ mice. […] Also shown in FIG. 33, CPA-7 treated tumor-infiltrating DCs have increased phosphorylated Stat1."}, "MB49 tumor cells": {"system": "MB49 tumor cells", "test": "CPA-7-induced tumor-cell apoptosis in vitro by annexin V staining", "format": "cell-based, mouse", "conditions": "annexin V staining (FIG. 31)", "procedure": "Cell lines. Mouse B16 melanoma, YAC-1 and P815 target cells were purchased from American Type Culture Collection. MB49 bladder carcinoma and C4 mouse melanoma lines were gifts from T. Ratliff (University of Iowa) and J. Fidler (M.D. Anderson Cancer Center), respectively.\nFlow cytometry. Single-cell suspensions were prepared by mechanic dispersion of spleen or tumor tissues. 1×10^6 freshly prepared cells suspended in a mixture of PBS, 2% FCS and 0.1% (wt/vol) sodium azide were preincubated with FcγIII/IIR-specific antibody to block nonspecific binding and cells were stained with different combinations of fluorochrome-coupled antibodies to CD11c, I-A^b (MHC class II), CD86, CD11b, Gr1, CD49b, CD3, CD25 or Lag-3, or with annexin V (BD Biosciences). Fluorescence data was collected on FACSCalibur (Beckton Dickinson) and analyzed using FlowJo software (Tree Star).\nThe effects of blocking Stat3 in immune cells with CPA-7, a small-molecule Stat3 inhibitor, were assessed. For these experiments, both B16 and MB49 tumor cells were used. In contrast to B16, MB49 tumor cells are insensitive to CPA-7-induced tumor-cell apoptosis, as determined by annexin V staining."}, "[1]": {"system": "MB49, B16 or C4 tumor cells", "test": "Lung tumor nodules after intravenous tumor cell injection and CPA-7 treatment", "format": "in vivo, mouse", "conditions": "5×10^4 MB49, B16 or C4 cells i.v., CPA-7 5 mg/kg twice weekly, day 21 (FIG. 38)", "procedure": "Mice were injected intravenously with 5×10^4 MB49, B16 or C4 tumor cells, followed by twice weekly treatment with CPA-7 (5 mg/kg) or vehicle (10% DMSO). Lung colonies were enumerated 21 days later, when control mice became moribund.\nTo visualize lung tumor nodules, lungs were fixed and bleached in Fekete's solution with or without India ink as a counterstain."}, "phosphorylated Stat1": {"system": "phosphorylated Stat1", "test": "Stat1P levels in tumor-infiltrating DCs after intravenous CPA-7, intracellular flow cytometry", "format": "in vivo, mouse", "conditions": "24 hours after intravenous injection (FIG. 33)", "procedure": "as §1, §2"}, "YAC-1 cells": {"system": "YAC-1 cells", "test": "51Cr-release assay of NK cell cytotoxicity from tumor-bearing mice treated with CPA-7", "format": "in vivo, mouse", "conditions": "NK cells from tumor-bearing mice treated with CPA-7, YAC-1 targets (FIG. 35)", "procedure": "Cytotoxicity assays. NK cell and neutrophil cytotoxicity assays were performed as described by Wei, S. et al., J. Exp. Med. 187, 1753-1765 (1998), which is incorporated herein by reference. Briefly, a 4-hour ^51Cr-release assay was carried out using YAC-1 cells as targets for enriched NK cells or FcγR^+ mouse mastocytoma (P815) cells as targets for enriched neutrophils. Cytotoxicity of CPA-7-treated NK cells from tumor-bearing hosts was assessed using a standard ^51Cr-release assay with YAC-1 cells as targets, as described in Example 1."}, "[2]": {"test": "Immunohistochemical analysis of colon sections for autoimmune pathology", "format": "in vivo, mouse", "conditions": "tumor-bearing Stat3+/+ and Stat3−/− mice, CPA-7 every third day for three weeks (FIG. 30)", "procedure": "Transverse colon sections were stained with hematoxylin-eosin and antibodies to CD4, CD8 or CD11b. Staining with rat IgG was used as a negative control.\nColons from tumor free Stat3^−/− mice were evaluated for autoimmune effects at 20 weeks after Stat3 deletion by immunohistochemical analysis. […] In contrast, there was virtually no evidence of systemic autoimmunity at 4 weeks after induced depletion in tumor-bearing Stat3^+/+ and Stat3^−/− mice (FIG. 29)."}, "MB49 tumors": {"system": "MB49 tumors", "test": "Growth of established MB49 tumors in mice treated with CPA-7", "format": "in vivo, mouse", "procedure": "For CPA-7 treatment, MB49 tumors were implanted into male C57BL/6 mice and tumors were allowed to grow until 5-7 mm in diameter. Mice were given intravenous injections of either vehicle (10% DMSO/PBS) or 5 mg/kg CPA-7 once every 3 days.\nMice with MB49 tumors (about 6 mm in diameter) received intravenous injections of either vehicle or CPA-7.\nMice with established MB49 tumors were treated with vehicle or CPA-7 in combination with control or asialo GM1-specific antibody."}}, "data": [{"smiles": "[NH2][Pt]([NH2])([Cl])([Cl])([Cl])[N+](=O)[O-]", "note": "[CPA-7]", "values": [{"measurement": "inhibition of Stat3 DNA binding", "setting": "Stat3", "value": "inhibits Stat3"}, {"measurement": "phosphorylated Stat3 in tumor-infiltrating DCs", "setting": "Phospho-Stat3 (Stat3P)", "value": "considerably reduced"}, {"measurement": "sensitivity to CPA-7-induced tumor-cell apoptosis", "setting": "MB49 tumor cells", "value": "insensitive"}, {"measurement": "lung tumor nodules", "setting": "[1]", "value": "significantly reduced or completely abrogated"}, {"measurement": "phosphorylated Stat1 in tumor-infiltrating DCs", "setting": "phosphorylated Stat1", "value": "increased"}, {"measurement": "NK cell activity (cytotoxicity)", "setting": "YAC-1 cells", "value": "increased"}, {"measurement": "pathologic changes in colons", "setting": "[2]", "value": "lack of pathologic changes"}, {"measurement": "growth of established tumors", "setting": "MB49 tumors; MB49 tumors about 6 mm in diameter, intravenous CPA-7 5 mg/kg once every 3 days (FIG. 34)", "value": "inhibits the growth of established tumors"}, {"measurement": "CPA-7-induced tumor growth inhibition in the absence of CD4+ and CD8+ T cells", "setting": "MB49 tumors; MB49 tumors, antibodies to CD4 and CD8 (FIG. 34)", "value": "abrogated"}, {"measurement": "in vivo antitumor effects of CPA-7 treatment with NK depletion", "setting": "MB49 tumors; established MB49 tumors, asialo GM1-specific antibody (FIG. 36)", "value": "partially abrogates"}]}]}
